Data as given in ChEMBL document CHEMBL1201862, “PubChem BioAssay data set” (2004).
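Dose response: 5 concentrations. Exposure: 48 h. Format: 96-well plates. Endpoint: linear interpolation; highest concentration if not reached. GI50 is the concentration that inhibits growth by half.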 The source made the active and inactive calls. Rule as the data show it: active = GI50 up to about 1.1 µM and inactive = higher.

Key:
Assay in all cases: inhibition of tumour cell growth, NCI panel, 48 h
786-0 = test system: 786-0
A498 = test system: A498
A549 = test system: A549
ACHN = test system: ACHN
BT-549 = test system: BT-549
CAKI-1 = test system: CAKI-1
CCRF-CEM = test system: CCRF-CEM
COLO 205 = test system: COLO 205
DLD-1 = test system: DLD-1
DMS-114 = test system: DMS-114
DU-145 = test system: DU-145
EKVX = test system: EKVX
HCC 2998 = test system: HCC 2998
HCT-116 = test system: HCT-116
HCT-15 = test system: HCT-15
HL-60 = test system: HL-60
HOP-62 = test system: HOP-62
HT-29 = test system: HT-29
Hs-578T = test system: Hs-578T
IGROV-1 = test system: IGROV-1
K562 = test system: K562
KM-20L2 = test system: KM-20L2
KM12 = test system: KM12
LOX IMVI = test system: LOX IMVI
LXFL 529 = test system: LXFL 529
M14 = test system: M14
M19-MEL = test system: M19-MEL
MCF7 = test system: MCF7
MDA-MB-435 = test system: MDA-MB-435
MOLT-4 = test system: MOLT-4
Malme-3M = test system: Malme-3M
NCI-H226 = test system: NCI-H226
NCI-H23 = test system: NCI-H23
NCI-H460 = test system: NCI-H460
NCI-H522 = test system: NCI-H522
OVCAR-3 = test system: OVCAR-3
OVCAR-4 = test system: OVCAR-4
OVCAR-5 = test system: OVCAR-5
OVCAR-8 = test system: OVCAR-8
RPMI-8226 = test system: RPMI-8226
RXF 393 = test system: RXF 393
SF-268 = test system: SF-268
SF-295 = test system: SF-295
SF-539 = test system: SF-539
SK-MEL-28 = test system: SK-MEL-28
SK-MEL-2 = test system: SK-MEL-2
SK-MEL-5 = test system: SK-MEL-5
SK-OV-3 = test system: SK-OV-3
SN12C = test system: SN12C
SNB-19 = test system: SNB-19
SNB-75 = test system: SNB-75
SNB-78 = test system: SNB-78
SR = test system: SR
SW-620 = test system: SW-620
T47D = test system: T47D
TK-10 = test system: TK-10
U-251 = test system: U-251
UACC-257 = test system: UACC-257
UACC-62 = test system: UACC-62
UO-31 = test system: UO-31
DMS-273 = test system: DMS-273
HOP-92 = test system: HOP-92

O=C(NC1=C(Cl)C(=O)c2ccccc2C1=O)C(=O)C(C(=O)c1ccc2ccccc2c1)C1OC(=O)c2ccccc21 (configuration not stated)
GI50 (786-0): 5.92 µM (inactive)
GI50 (A498): 4.68 µM (inactive)
GI50 (A549): 4.72 µM (inactive)
GI50 (ACHN): 7.29 µM (inactive)
GI50 (BT-549): 3.48 µM (inactive)
GI50 (CAKI-1): 6.34 µM (inactive)
GI50 (CCRF-CEM): 2.87 µM (inactive)
GI50 (COLO 205): 7.4 µM (inactive)
GI50 (DLD-1): 4.31 µM (inactive)
GI50 (DMS-114): 2.36 µM (inactive)
GI50 (DU-145): 10.6 µM (inactive)
GI50 (EKVX): 12 µM (inactive)
GI50 (HCC 2998): 9.55 µM (inactive)
GI50 (HCT-116): 3.52 µM (inactive)
GI50 (HCT-15): 3.77 µM
GI50 (HL-60): 2.49 µM (inactive)
GI50 (HOP-62): 5.82 µM (inactive)
GI50 (HT-29): 4.07 µM (inactive)
GI50 (Hs-578T): 6.25 µM (inactive)
GI50 (IGROV-1): 7.73 µM (inactive)
GI50 (K562): 3.55 µM (inactive)
GI50 (KM-20L2): 4.52 µM (inactive)
GI50 (KM12): 3.09 µM (inactive)
GI50 (LOX IMVI): 1.08 µM (active)
GI50 (LXFL 529): 4.43 µM (inactive)
GI50 (M14): 2.18 µM (inactive)
GI50 (M19-MEL): 0.309 µM (active)
GI50 (MCF7): 2.74 µM (inactive)
GI50 (MDA-MB-435): 1.7 µM (inactive)
GI50 (MOLT-4): 2.06 µM (inactive)
GI50 (Malme-3M): 1.7 µM (inactive)
GI50 (NCI-H226): 0.986 µM (active)
GI50 (NCI-H23): 2.9 µM (inactive)
GI50 (NCI-H460): 2.96 µM (inactive)
GI50 (NCI-H522): 3.94 µM (inactive)
GI50 (OVCAR-3): 2.7 µM (inactive)
GI50 (OVCAR-4): 6.97 µM (inactive)
GI50 (OVCAR-5): 11.8 µM (inactive)
GI50 (OVCAR-8): 4.61 µM (inactive)
GI50 (RPMI-8226): 2.05 µM (inactive)
GI50 (RXF 393): 4.49 µM (inactive)
GI50 (SF-268): 4.53 µM (inactive)
GI50 (SF-295): 3.3 µM (inactive)
GI50 (SF-539): 2.95 µM (inactive)
GI50 (SK-MEL-28): 4.59 µM (inactive)
GI50 (SK-MEL-2): 4.94 µM (inactive)
GI50 (SK-MEL-5): 0.564 µM (active)
GI50 (SK-OV-3): 13.2 µM (inactive)
GI50 (SN12C): 4.36 µM (inactive)
GI50 (SNB-19): 6.03 µM (inactive)
GI50 (SNB-75): 2.87 µM (inactive)
GI50 (SNB-78): 3.76 µM (inactive)
GI50 (SR): 3.31 µM (inactive)
GI50 (SW-620): 5.13 µM (inactive)
GI50 (T47D): 5.35 µM (inactive)
GI50 (TK-10): 25.6 µM (inactive)
GI50 (U-251): 4.38 µM (inactive)
GI50 (UACC-257): 2.19 µM (inactive)
GI50 (UACC-62): 1.73 µM (inactive)
GI50 (UO-31): 13.2 µM (inactive)

CSc1n/c(=N\c2ccccc2)sn1-c1ccccc1
GI50 (786-0): 16.6 µM (inactive)
GI50 (A498): 18.7 µM (inactive)
GI50 (A549): 16.6 µM (inactive)
GI50 (ACHN): 18.9 µM (inactive)
GI50 (CAKI-1): 13.5 µM (inactive)
GI50 (CCRF-CEM): 11.2 µM (inactive)
GI50 (COLO 205): 7.73 µM (inactive)
GI50 (DMS-114): 3.15 µM (inactive)
GI50 (DMS-273): 8.83 µM (inactive)
GI50 (EKVX): 27.5 µM (inactive)
GI50 (HCC 2998): 17.9 µM (inactive)
GI50 (HCT-116): 8.43 µM (inactive)
GI50 (HCT-15): 13.8 µM
GI50 (HL-60): 3.74 µM (inactive)
GI50 (HOP-62): 15.6 µM (inactive)
GI50 (HT-29): 3.52 µM (inactive)
GI50 (IGROV-1): 4.65 µM (inactive)
GI50 (K562): 3.24 µM (inactive)
GI50 (KM-20L2): 13.6 µM (inactive)
GI50 (KM12): 17.3 µM (inactive)
GI50 (LOX IMVI): 16.6 µM (inactive)
GI50 (M14): 10.7 µM (inactive)
GI50 (M19-MEL): 5.58 µM (inactive)
GI50 (MOLT-4): 11.2 µM (inactive)
GI50 (Malme-3M): 24.3 µM (inactive)
GI50 (NCI-H226): 15.5 µM (inactive)
GI50 (NCI-H23): 14.1 µM (inactive)
GI50 (NCI-H460): 4.79 µM (inactive)
GI50 (NCI-H522): 2.71 µM (inactive)
GI50 (OVCAR-3): 18 µM (inactive)
GI50 (OVCAR-4): 5.3 µM (inactive)
GI50 (OVCAR-5): 17.3 µM (inactive)
GI50 (OVCAR-8): 21.7 µM (inactive)
GI50 (RPMI-8226): 5.45 µM (inactive)
GI50 (RXF 393): 16.8 µM (inactive)
GI50 (SF-268): 19.6 µM (inactive)
GI50 (SF-295): 21.5 µM (inactive)
GI50 (SF-539): 18.6 µM (inactive)
GI50 (SK-MEL-28): 14.1 µM (inactive)
GI50 (SK-MEL-2): 17.1 µM (inactive)
GI50 (SK-MEL-5): 11.2 µM (inactive)
GI50 (SK-OV-3): 36.6 µM (inactive)
GI50 (SN12C): 15.6 µM (inactive)
GI50 (SNB-19): 17.1 µM (inactive)
GI50 (SNB-75): 27.2 µM (inactive)
GI50 (SNB-78): 20.7 µM (inactive)
GI50 (SR): 17.8 µM (inactive)
GI50 (SW-620): 12.3 µM (inactive)
GI50 (TK-10): 26.7 µM (inactive)
GI50 (U-251): 14.9 µM (inactive)
GI50 (UACC-257): 20.3 µM (inactive)
GI50 (UACC-62): 4.76 µM (inactive)
GI50 (UO-31): 17.3 µM (inactive)

COc1ccc(/C=C(\Cl)c2ccc(OC)cc2)cc1
GI50 (786-0): > 100 µM (inactive)
GI50 (A498): > 100 µM (inactive)
GI50 (A549): > 100 µM (inactive)
GI50 (ACHN): > 100 µM (inactive)
GI50 (CAKI-1): > 100 µM (inactive)
GI50 (CCRF-CEM): > 100 µM (inactive)
GI50 (COLO 205): > 100 µM (inactive)
GI50 (DLD-1): > 100 µM (inactive)
GI50 (DMS-114): > 100 µM (inactive)
GI50 (DMS-273): > 100 µM (inactive)
GI50 (EKVX): > 100 µM (inactive)
GI50 (HCC 2998): > 100 µM (inactive)
GI50 (HCT-116): > 100 µM (inactive)
GI50 (HL-60): > 100 µM (inactive)
GI50 (HOP-62): > 100 µM (inactive)
GI50 (HOP-92): > 100 µM (inactive)
GI50 (K562): > 100 µM (inactive)
GI50 (KM-20L2): > 100 µM (inactive)
GI50 (KM12): > 100 µM (inactive)
GI50 (LOX IMVI): > 100 µM (inactive)
GI50 (LXFL 529): > 100 µM (inactive)
GI50 (M14): > 100 µM (inactive)
GI50 (M19-MEL): > 100 µM (inactive)
GI50 (MOLT-4): > 100 µM (inactive)
GI50 (Malme-3M): > 100 µM (inactive)
GI50 (NCI-H226): > 100 µM (inactive)
GI50 (NCI-H23): > 100 µM (inactive)
GI50 (NCI-H460): > 100 µM (inactive)
GI50 (NCI-H522): > 100 µM (inactive)
GI50 (OVCAR-3): > 100 µM (inactive)
GI50 (OVCAR-4): > 100 µM (inactive)
GI50 (OVCAR-5): > 100 µM (inactive)
GI50 (OVCAR-8): > 100 µM (inactive)
GI50 (RPMI-8226): > 100 µM (inactive)
GI50 (SF-268): > 100 µM (inactive)
GI50 (SF-539): > 100 µM (inactive)
GI50 (SK-MEL-28): > 100 µM (inactive)
GI50 (SK-MEL-5): > 100 µM (inactive)
GI50 (SK-OV-3): 0.325 µM (active)
GI50 (SN12C): > 100 µM (inactive)
GI50 (SNB-19): > 100 µM (inactive)
GI50 (SNB-75): > 100 µM (inactive)
GI50 (SR): > 100 µM (inactive)
GI50 (SW-620): > 100 µM (inactive)
GI50 (TK-10): > 100 µM (inactive)
GI50 (U-251): > 100 µM (inactive)
GI50 (UACC-257): > 100 µM (inactive)
GI50 (UACC-62): 38.8 µM (inactive)
GI50 (UO-31): > 100 µM (inactive)
